Laboratory results from patent US9290791B2, “Reagents and methods for sirtuin capture” (CORNELL UNIVERSITY, priority 2010, dated 2016).

Columns and labels:
sirtuin = conditions: known sirtuin inhibitor; cited from earlier work
SirT3 = target: T1, SirT3 (Homo sapiens, UniProt Q9NTG7); assay: Sirtuin inhibitor screening pulldown assay (NAD+, azido-thiotripeptide, alkynyl-biotin; SDS-PAGE, silver stain); type: biochemical; conditions: 500 μM inhibitor; sirtuin mixture, 4.9 μM SirT3, 500 μM NAD+, 200 μM 4-azido-BzlK(AcS)AAOMe; FIG. 10
T1 construct: poly histidine tag (N); made in house; host or cells: E. coli BL21-CodonPlus(DE3)-RIPL
T1 sequence (Q9NTG7 1-399): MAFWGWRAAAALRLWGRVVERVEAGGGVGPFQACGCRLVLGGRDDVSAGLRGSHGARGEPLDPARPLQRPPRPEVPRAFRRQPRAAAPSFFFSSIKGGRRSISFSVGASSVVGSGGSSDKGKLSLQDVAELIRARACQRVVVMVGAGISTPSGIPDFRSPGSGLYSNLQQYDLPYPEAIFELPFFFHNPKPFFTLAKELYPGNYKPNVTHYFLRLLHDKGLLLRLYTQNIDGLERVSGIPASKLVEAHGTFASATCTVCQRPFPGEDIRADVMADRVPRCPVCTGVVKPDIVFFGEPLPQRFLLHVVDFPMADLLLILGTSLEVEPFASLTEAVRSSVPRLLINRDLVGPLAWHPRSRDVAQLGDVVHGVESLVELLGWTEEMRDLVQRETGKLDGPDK
Procedure: (§1) The key criterion for our pulldown technology is the formation of a stalled thioimidate complex with a cross-linkable moiety at the active site on sirtuins. If the presence of a sirtuin inhibitor can interrupt thioimidate formation, there will be less or no sirtuin can be harvested later on.
(§2) Pulldown assay: a typical reaction was performed in 100 mM phosphate buffer pH 7.5 in a total volume of 100 μL. Each reaction contained 500 μM of NAD^+, 200 μM of 4-azido-BzlK(AcS)AAOMe, and various concentrations of potential inhibitors. One control experiment which contained 500 μM of NAD^+ only were run at the same time. Reactions were initiated by addition of enzymes with final concentrations: 5 μM for SirT1, 3.4 μM for SirT2, 4.9 μM for SirT3, 5.04 μM for SirT5 and 5.35 μM for SirT6. Reactions were incubated at 37° C. for 30 min and then alkynyl-biotin was added to each sample to a final concentration of 500 μM followed by 3 μL of freshly premixed click chemistry cocktail: CuSO4 (final concentration 1 mM), tris[(1-benzyl-1H-1,2,3-triazol-4-yl)methyl]amine (TBTA, final concentration 600 μM) and tris(2-carboxyethyl)phosphine hydrochloride (TCEP, final concentration 2 mM). The samples were incubated at room temperature for 30 min. Then, 50 μL streptavidin beads (pretreated with 1 mM of BSA) were added to each sample and the incubation were continued at room temperature for 1 h. […]

SirT5 = target: T2, SirT5 (Homo sapiens, UniProt Q9NXA8); assay: as above; type: biochemical; conditions: 500 μM inhibitor; sirtuin mixture, 5.04 μM SirT5, 500 μM NAD+, 200 μM 4-azido-BzlK(AcS)AAOMe; FIG. 10
T2 construct: SirT5(34-302); poly histidine tag (N); made in house; host or cells: E. coli BL21-CodonPlus(DE3)-RIPL
T2 sequence (Q9NXA8 34-302): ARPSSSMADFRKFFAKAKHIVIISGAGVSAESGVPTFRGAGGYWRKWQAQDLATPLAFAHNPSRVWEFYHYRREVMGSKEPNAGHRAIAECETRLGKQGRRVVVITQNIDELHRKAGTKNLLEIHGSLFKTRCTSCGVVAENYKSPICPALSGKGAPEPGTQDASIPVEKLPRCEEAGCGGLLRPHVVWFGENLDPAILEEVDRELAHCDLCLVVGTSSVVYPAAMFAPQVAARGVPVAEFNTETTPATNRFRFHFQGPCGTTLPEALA
Procedure: as §1, §2

SirT1 [1] = target: T3, SirT1 (Homo sapiens, UniProt Q96EB6); assay: as above; type: biochemical; conditions: 500 μM inhibitor; sirtuin mixture, 5 μM SirT1, 500 μM NAD+, 200 μM 4-azido-BzlK(AcS)AAOMe; FIG. 10
Procedure: as §1, §2

SirT1 [2] = target: T3, SirT1; assay: HPLC deacetylation assay of SirT1 with p53mer; type: biochemical; conditions: 3 μM SirT1, 500 μM NAD+, 300 μM p53mer, various concentrations of suramin; FIG. 11
Procedure: HPLC assay: reactions were performed in 100 mM phosphate buffer pH 7.5 in a total volume of 50 μL. Each reaction contained 500 μM of NAD^+, 300 μM of p53mer and various concentrations of suramin. Reactions were initiated by addition of SirT1 to a final concentration of 3 μM. A negative control which contained 500 μM of NAD^+ and 300 μM of p53mer, but was quenched by addition of TFA before the addition of enzyme was run at the same time. The reactions were incubated at 37° C. for 20 min before being quenched by 8 of 10% TFA. The samples were then injected on an HPLC fitted to a Macherey-Nagel Nucleosil C18 column. AADPR, NAD^+ and NAM peaks were resolved using a gradient of 0 to 10% methanol in 20 mM ammonium acetate. Chromatograms were analyzed at 260 nm.

[3] = system: class III HDACs (sirtuins); assay: Sirtuin inhibitor screening pulldown assay on sirtuin mixture; type: biochemical; conditions: 20 μM inhibitor; mixture of SirT1, SirT2, SirT3, SirT5, SirT6; FIG. 10
Procedure: as §1, §2

T3 sequence (Q96EB6 whole entry, species assumed): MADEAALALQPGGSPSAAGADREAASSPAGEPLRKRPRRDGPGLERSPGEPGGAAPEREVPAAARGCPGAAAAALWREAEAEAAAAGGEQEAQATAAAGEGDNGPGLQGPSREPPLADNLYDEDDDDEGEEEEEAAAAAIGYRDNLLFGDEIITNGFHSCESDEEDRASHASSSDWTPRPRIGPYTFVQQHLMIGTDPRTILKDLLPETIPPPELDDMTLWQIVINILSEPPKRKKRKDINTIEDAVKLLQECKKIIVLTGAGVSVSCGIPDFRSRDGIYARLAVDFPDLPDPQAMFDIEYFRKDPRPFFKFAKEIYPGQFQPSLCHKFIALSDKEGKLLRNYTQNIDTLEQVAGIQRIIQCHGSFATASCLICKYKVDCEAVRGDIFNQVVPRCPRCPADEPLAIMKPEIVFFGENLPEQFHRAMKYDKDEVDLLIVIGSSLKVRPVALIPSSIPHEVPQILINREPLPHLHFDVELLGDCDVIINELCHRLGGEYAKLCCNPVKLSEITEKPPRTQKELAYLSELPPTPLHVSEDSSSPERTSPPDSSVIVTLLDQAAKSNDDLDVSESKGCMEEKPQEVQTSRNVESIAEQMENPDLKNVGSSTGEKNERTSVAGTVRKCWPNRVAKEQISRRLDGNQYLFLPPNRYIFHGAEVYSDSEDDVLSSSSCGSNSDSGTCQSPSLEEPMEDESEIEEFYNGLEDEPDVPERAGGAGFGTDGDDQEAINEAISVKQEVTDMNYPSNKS

SirT3 captured by standard pulldown assay (SirT3) | SirT5 captured by standard pulldown assay (SirT5) | SirT1 captured by standard pulldown assay (SirT1 [1]) | inhibition confirmed by HPLC assay (SirT1 [2]) | Structure (SMILES) | IC50 (sirtuin) | effect on sirtuin capture in pulldown assay [3]
less | less | less | confirmed | Cc1ccc(C(=O)Nc2ccc(S(=O)(=O)O)c3cc(S(=O)(=O)O)cc(S(=O)(=O)O)c23)cc1NC(=O)c1cccc(NC(=O)Nc2cccc(C(=O)Nc3cc(C(=O)Nc4ccc(S(=O)(=O)O)c5cc(S(=O)(=O)O)cc(S(=O)(=O)O)c45)ccc3C)c2)c1 [Suramin, suramin] | low micromolar range | 
 |  |  |  | CC(/C=C/C(=O)NO)=C\[C@@H](C)C(=O)c1ccc(N(C)C)cc1 [TSA, trichostatin A] |  | no effects
